Measurements taken from patent publication US20230309555A1, “ENVIRONMENTALLY RESPONSIVE TRANS-2-HEXENAL SUSTAINED-RELEASE AGENT, PREPARATION METHOD, AND APPLICATION” (ZHEJIANG UNIVERSITY, priority 2022, published 2023).

Tests used:
[1] = 0.05 g product, sealed vial 7 d; 4, 25, 45 °C; relative humidity 0%, 30%, 50%, 70%, 85%, 100%
Method: 20 mL glass vials were filled with 3 g of silica gel, 3 mL of saturated magnesium chloride solution, 3 mL of saturated potassium carbonate solution, 3 mL of saturated potassium iodide solution, 3 mL of saturated of potassium chloride solution, and 3 mL of pure water and then sealed until reaching relative humidity of 0%, 30%, 50%, 70%, 85% and 100%, respectively, and the mixed solution was balanced at 4° C. for 1 h. 0.05 g product was weighed and placed in a 2 mL glass vial, then transferred to the 20 mL glass vial and sealed for 7 d, and the release amount was measured every day.
20 mL glass vials were filled with 3 g of silica gel, 3 mL of saturated magnesium chloride solution, 3 mL of saturated potassium carbonate solution, 3 mL of saturated potassium iodide solution, 3 mL of saturated potassium chloride solution, and 3 mL of pure water until reaching relative humidity of 0%, 30%, 50%, 70%, 85% and 100%, respectively, and the mixed solution was balanced at 25° C. for 1 h. 0.05 g product was weighed in a 2 mL glass vial, then transferred to the 20 mL glass vial and sealed for 7 d, and the release amount was measured every day. […]

Botrytis cinerea [2] = test: growth of Botrytis cinerea on potato dextrose agar plate medium; type: cell-based; settings: after 4 days culture at 25 °C
Method: Botrytis cinerea lesion with a diameter of 5 mm was inoculated on the center of a potato dextrose agar medium plate. The experiment was performed by seven groups as follows: • a. A BLANK group: nothing was added; • b. A GSH group: 1 g reductive glutathione was added to a lid of a Petri dish and the Petri dish was sealed immediately; • c. A GSH3h group: 1 g reductive glutathione was added to a lid of a Petri dish and then the Petri dish was sealed after being left open for 3 h at room temperature; • d. A Group […]: 20 μL trans-2-hexenal was added to a lid of a Petri dish and the Petri dish was sealed immediately; • e. An E-2-[…] group: 20 μL trans-2-hexenal was added to a lid of a Petri dish and the Petri dish was sealed after being left open for 3 h at room temperature; • f. […] After all groups were sealed completely, the groups were inverted and cultured at 25° C.The growth of Botrytis cinerea was checked regularly.

Botrytis cinerea [3] = settings: strawberries injected with 4 µL of 5×10^5 cfu/mL Botrytis cinerea; 6 g product at bottom of fresh-keeping box; room temperature
Method: Strawberries which were harvested at the same maturity, similar in size and without any infestation with insects or pets and damage, were selected. The strawberries were surface-sterilized by immersing in 0.5% (v/v) sodium hypochlorite for 5 min, then washed with sterile water to remove residues and dried at room temperature. The strawberries were randomly divided into 2 groups, each group including 33 strawberries, and then packed into a certain volume of fresh-keeping boxes (11 strawberries per box). In group a, 4 µL of 5×10^5cfu/mL of Botrytis cinerea solution was injected into the equatorial part of the strawberry. […] The experiment was conducted at room temperature and the strawberries were observed daily for decay, and the diameter of the lesions was measured daily.

[4] = Petri dish sealed after being left open for 3 h at room temperature
[5] = Petri dish sealed immediately after addition

SMILES	release rate of trans-2-hexenal from the products [1]	difference in bacterial inhibition results between group sealed immediately and group sealed after being left open for 3 h (Botrytis cinerea [2]; 1 g product)	lesion diameter of Botrytis cinerea on plate medium (Botrytis cinerea [2]; [4])	lesion diameter of Botrytis cinerea on plate medium (Botrytis cinerea [2]; [5])	bacterial inhibition (incidence of fruit gray mold) (Botrytis cinerea [3])	growth diameters of the lesion of fruit (Botrytis cinerea [3])
CCCC(CC=O)SC[C@H](NC(=O)CC[C@H](N)C(=O)O)C(=O)NCC(=O)O (stereo partly shown)	increased with the increase in relative humidity and temperature	little difference	significantly smaller than that of the blank group	significantly smaller than that of the blank group	better than the control group	lower than that of the control group
N[C@@H](CCC(=O)N[C@@H](CS)C(=O)NCC(=O)O)C(=O)O [reductive glutathione]			not significantly different from the blank group	not significantly different from the blank group		
CCC/C=C/C=O [trans-2-hexenal]			larger than that of the glutathione/trans-2-hexenal addition product group	significantly lower lesion diameter than other groups		
